For 2 compounds, IC50 results are on record in BindingDB's records for doi:10.1021/jm00038a004 (University of Arizona, 1994).

A short description of the assay: Binding affinity opioid receptor.

One may read the IC50 as the point on the concentration scale where inhibition reaches its midpoint. Higher therefore signals weaker potency in that assay. Regarding `Cc1cc(O)cc(C)c1[C@H](C)[C@H](N)C(=O)N[C@H](C)C(=O)N[C@@H](Cc1ccccc1)C(=O)N[C@@H](CC(=O)O)C(=O)N[C@H](C(=O)N[C@H](C(=O)NCC(N)=O)C(C)C)C(C)C` [(S)-3-((S)-2-{(R)-2-[(2S,3S)-2-Amino-3-(4-hydroxy-2,6-dimethyl-phenyl)-butyrylamino]-propionylamino}-3-phenyl-propionylamino)-N-{(S)-1-[(S)-1-(carbamoylmethyl-carbamoyl)-2-methyl-propylcarbamoyl]-2-methyl-propyl}-succinamic acid], the IC50 stood at 17.1 µM.

Take `Cc1cc(O)cc(C)c1[C@H](C)[C@H](N)C(=O)N[C@H]1C(=O)NCC(=O)N[C@@H](Cc2ccccc2)C(=O)N[C@@H](C(=O)O)C(C)(C)SSC1(C)C` [(4S,7S,13S)-13-[(2S,3S)-2-Amino-3-(4-hydroxy-2,6-dimethyl-phenyl)-butyrylamino]-7-benzyl-3,3,14,14-tetramethyl-6,9,12-trioxo-1,2-dithia-5,8,11-triaza-cyclotetradecane-4-carboxylic acid]: the IC50 was 0.722 µM.
